Common to all, as to assay type: functional
Experiment [1] deals with Rattus norvegicus. The experiment can be described thus: Inhibitory activity was measured on carrageenan-induced paw edema at a dose of 100 mg/Kg at 4 hours after intraperitoneal administration in rats. Conditions: ip.
Experiment [2] deals with Rattus norvegicus. The experiment is described as follows: Inhibition of carrageenan-induced 4 hours after 50 mg/kg i.p. administration in rats. Conditions: ip, route intraperitoneal.
Experiment [3] has as its system Rattus norvegicus. The experiment is described as follows: Inhibitory activity was measured on carrageenan-induced paw edema at a dose of 25 mg/Kg at 4 hours after intraperitoneal administration in rats. Conditions: ip. For orientation: The carrageenan paw model is a standard test of acute inflammation.

What is called inhibition in vivo is the drop in the measured response relative to a control, in per cent. Compound `CC(C)=NOCCC(=O)O` had an inhibition in vivo at 100 mg/kg in the experiment with Rattus norvegicus [1] of 35%. In the experiment on Rattus norvegicus [2], this compound came in with an inhibition in vivo at 50 mg/kg of 21%.

For the compound `O=C(O)CCO/N=C/c1ccccc1`, the inhibition in vivo at 50 mg/kg in the experiment on Rattus norvegicus [2] worked out at 66%. In addition, at 25 mg/kg the inhibition in vivo with Rattus norvegicus [3] was 15%.

In the experiment on Rattus norvegicus [2], `C/C(=N\OCCC(=O)O)C1CC1` showed an inhibition in vivo at 50 mg/kg of 16%.

With `CC/C(=N\OCCC(=O)O)c1ccccc1`, testing at 100 mg/kg with Rattus norvegicus [1] gave an inhibition in vivo of 20%. The same compound came in with an inhibition in vivo at 50 mg/kg with Rattus norvegicus [2] of 28%. At 25 mg/kg the inhibition in vivo in the experiment on Rattus norvegicus [3] was 19%.

Consider `CCC(/C=N/OCCC(=O)O)CC`, for which, in the experiment on Rattus norvegicus [2], at 50 mg/kg the inhibition in vivo was 0%.

`O=C(O)CCO/N=C/C1CCCCC1` gave an inhibition in vivo at 50 mg/kg in the experiment with Rattus norvegicus [2] of 0%.

Compound `CCCC(CCC)=NOCCC(=O)O` showed an inhibition in vivo at 50 mg/kg in the experiment with Rattus norvegicus [2] of 0%.

Take `C/C(=N\OCCC(=O)O)C1CCCCC1`: the inhibition in vivo at 50 mg/kg in the experiment with Rattus norvegicus [2] was found to be 0%.

For the compound `CC(C)C(=NOCCC(=O)O)C(C)C`, in the experiment with Rattus norvegicus [2], 50 mg/kg produced 12% inhibition in vivo.

`O=C(O)CCON=C1c2ccccc2-c2ccccc21` came in with an inhibition in vivo at 50 mg/kg in the experiment with Rattus norvegicus [2] of 0%.

`O=C(O)CCON=C(c1ccccc1)c1ccccc1` came in with an inhibition in vivo at 50 mg/kg in the experiment on Rattus norvegicus [2] of 11%.

In the experiment with Rattus norvegicus [2], `O=C(O)CCO/N=C1/CC2CCC1C2` (stereo not drawn) yielded an inhibition in vivo at 50 mg/kg of 16%.

In the experiment with Rattus norvegicus [1], `C/C(=N\OCCC(=O)O)c1ccccc1` had an inhibition in vivo at 100 mg/kg of 31%. Further, the inhibition in vivo at 50 mg/kg with Rattus norvegicus [2] worked out at 40%. The same compound had an inhibition in vivo at 25 mg/kg in the experiment with Rattus norvegicus [3] of 23%.

In the experiment with Rattus norvegicus [2], `O=C(O)CCO/N=C/c1cccs1` gave an inhibition in vivo at 50 mg/kg of 0%.

In the experiment on Rattus norvegicus [2], `O=C(O)CCO/N=C\c1ccccc1` came in with an inhibition in vivo at 50 mg/kg of 0%.

The compound `O=C(O)CCON=C1C2CC3CC(C2)CC1C3` displayed an inhibition in vivo at 50 mg/kg in the experiment with Rattus norvegicus [2] of 19%.

Compound `O=C(O)CCO/N=C/c1ccco1` registered an inhibition in vivo at 50 mg/kg in the experiment on Rattus norvegicus [2] of 15%.

For the compound `CC/C(=N\OCCC(=O)O)C(C)C`, the inhibition in vivo at 100 mg/kg in the experiment with Rattus norvegicus [1] was less than 27%. Moreover, at 50 mg/kg the inhibition in vivo with Rattus norvegicus [2] was 35%. Moreover, the inhibition in vivo at 25 mg/kg with Rattus norvegicus [3] was determined as 21%.

`O=C(O)Cc1ccccc1Nc1c(Cl)cccc1Cl` [DICLOFENAC]: in the experiment with Rattus norvegicus [2], at 50 mg/kg the inhibition in vivo was 67%. Moreover, 25 mg/kg produced 31% inhibition in vivo in the experiment with Rattus norvegicus [3].

(Values after ChEMBL document CHEMBL1124768 (1990).)
